Test [1] has as its target T1, chymotrypsin-like site of 26S proteasomes (Oryctolagus cuniculus, UniProt G1T4Q9).
T1 sequence (G1T4Q9 1-263): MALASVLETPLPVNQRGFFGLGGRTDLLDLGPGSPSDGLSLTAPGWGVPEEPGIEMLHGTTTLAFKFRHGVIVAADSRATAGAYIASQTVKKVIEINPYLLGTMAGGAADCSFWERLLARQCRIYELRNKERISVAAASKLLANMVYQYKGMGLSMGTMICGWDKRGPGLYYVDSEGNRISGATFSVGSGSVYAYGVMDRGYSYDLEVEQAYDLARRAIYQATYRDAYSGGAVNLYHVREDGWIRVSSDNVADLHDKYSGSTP
As to the kind of experiment: Inhibition of purified 26S proteasomes, substrate Suc-LLVY-amc. Particulars: >>30 no inhibition at 30 μM, >30 inhibition between 10 and 50% at 30 μM, read-out: IC50 for sites in 26S proteasomes: Chym-L. The class given is biochemical, rabbit. As for the experimental part: (§1) 26S proteasomes were purified from rabbit muscle using known methods (Screen, et al. (2010) supra). […] NOVEX Bis-Tris gels (12%, Invitrogen) with MOPS running buffer were used for electrophoretic separation of catalytic subunits modified by active-site probes. Inhibition of active sites inside cells was assayed using luminescent PROTEASOMEGLO assay (Promega; Moravec, et al. (2009) Anal. Biochem. 387:294-302) according to known methods (Britton, et al. (2009) supra).

The target in test [2] is caspase-like site of 26S proteasomes (Oryctolagus cuniculus, UniProt A0A5F9DQW2). The test can be described thus: Inhibition of purified 26S proteasomes, substrate Ac-nLPnLD-amc. Particulars: >>30 no inhibition at 30 μM, >30 inhibition between 10 and 50% at 30 μM, read-out: IC50 for sites in 26S proteasomes: Casp-L. The class given is biochemical, rabbit. As for the experimental part:
as §1

The next test has as its system Cathepsin B, H, L, S. As to the kind of experiment: Cathepsin activity with pan-cathepsin substrate Z-FR-amc. Type of test: cell-based. As to conditions: NCI-H929 cells, 6 hour treatment. As for the experimental part: Cathepsin B, H, L, S activity was measured with pan-cathepsin substrate Z-FR-amc (Kirschke & Wiederanders (1994) Methods Enzymol. 244:500-11) in extracts of cytosol-less cells at pH 6.0 (Screen, et al. (2010) supra). Cathepsin D activity was measured in cytosol-less extracts using SENSOLYTE 520 Cathepsin D Fluorometric Assay Kit (AnaSpec). Combined cathepsin D and E activity was measured using the same kit, in which cathepsin D substrate provided with the kit was replaced with 7-Methoxycoumarin-[…](Dnp)-X′-NH2 (SEQ ID NO:10; where “X′” stand for D-Arg) internally quenched fluorogenic substrate of cathepsin D and E. In this case, pH 3.0 assay buffer used for cell extraction. All activity observed using both procedures was inhibited by more than 98% by specific inhibitor of aspartic proteases pepstatin A.

Test [3] concerns the target T2, trypsin-like site of 26S proteasomes (Oryctolagus cuniculus, UniProt G1SWK8).
T2 construct: IC50 for sites in 26S proteasomes: Tr-L; other: purified 26S proteasomes; other: 26S proteasomes from rabbit muscles
T2 sequence (G1SWK8 1-271): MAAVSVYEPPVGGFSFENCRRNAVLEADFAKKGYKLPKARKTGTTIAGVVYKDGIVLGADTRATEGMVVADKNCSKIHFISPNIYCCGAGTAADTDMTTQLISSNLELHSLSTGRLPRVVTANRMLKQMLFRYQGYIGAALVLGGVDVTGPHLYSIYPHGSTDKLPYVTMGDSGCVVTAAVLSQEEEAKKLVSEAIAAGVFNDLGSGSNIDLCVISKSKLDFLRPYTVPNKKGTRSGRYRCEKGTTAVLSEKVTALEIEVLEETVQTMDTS
As to the kind of experiment: Inhibition of purified 26S proteasomes, substrate Ac-RLR-amc. The class given is biochemical, rabbit. As to conditions: purified 26S proteasomes; >>30 no inhibition at 30 μM, >30 inhibition between 10 and 50% at 30 μM; read-out: IC50 for sites in 26S proteasomes: Tr-L.

The test system of test [4] is trypsin-like site of 26S proteasomes. The description is as above. The class given is biochemical, rabbit. As to conditions: for IC50 (Chym-L)/IC50 (Tr-L): rabbit 26S proteasomes.
For a further test, the target named is T3, β5 proteasome subunit (Homo sapiens, UniProt P20618+P28074).
T3 construct: Whole cell lysates of HEK-293T or EL-4 cells were made by sonication; endogenous in cells; host or cells: HEK-293T
As to the kind of experiment: Competition assay in HEK-293T cell lysate with MV151. Particulars: HEK293 extracts. Type of test: biochemical. How it is done:
Whole cell lysates of HEK-293T or EL-4 cells were made by sonication in 3 volumes of lysis buffer containing 50 mM Tris pH 7.5, 1 mM DTT, 5 mM MgCl2, 250 mM sucrose, 2 mM ATP, 0.025% digitonin. Protein concentration was determined by the Bradford assay. Cell lysates (13.5 μg total protein for HEK lysates and 9 μg total protein for EL-4 lysates) were exposed to the inhibitors for 1 hour at 37° C. prior to incubation with MV151 (0.5 μM) or BODIPY-TMR-epoxomicin (0.5 μM) for an additional 1 hour at 37° C. Reaction mixtures were boiled with Laemmli's buffer containing (3-mercaptoethanol for 5 minutes before being resolved by 12.5% SDS-PAGE. In-gel detection of residual proteasome activity was performed in the wet gel slabs directly on the TYPHOON Variable Mode Imager (Amersham Biosciences) using the Cy3/Tamra settings (λex 532 nm, λem 560 nm) to detect MV151, BODIPY-TMR-epoxomicin and Cy2/Fam settings (λex 488 nm, λem 520 nm) to detect compounds 39 and 59.
The inhibition potential of the inhibitors for each of the catalytically active subunits was assessed in competition assays employing extracts of human embryonic kidney cells (HEK-293T) and mouse lymphoma cells (EL-4) in combination with the fluorescent broad spectrum proteasome probe MV151 (Verdoes, et al. (2006) Chem. Biol. 13:1217-1226). Competitive inhibition of a proteasome active site is reflected by the disappearance of the corresponding band on a gel.

Another test relates to RPMI-8226 cells. The test can be described thus: ALAMAR BLUE cell viability assay. Type of test: cell-based. Particulars: E-64d 10 μM. How it is done:
RPMI-8226 and NCI-H929 cells were cultured in RPMI-1640 supplemented with 10% fetal bovine serum, penicillin, streptomycin, and plasmocin in 5% CO2 humidified incubator. HEK-293T cells were cultured in DMEM containing 10% fetal calf serum, 10 units/mL penicillin, and 10 μg/mL streptomycin in a 7% CO2 humidified incubator. Viability of multiple myeloma cells was measured with ALAMAR BLUE mitochondrial dye conversion assay. Viability of peripheral blood mononuclear cells (PBMNCs) was measured using CELL TITER-GLO luminescent cell viability assay (Promega), which is based on quantification of ATP present in the cells. Caspase-3/7 activity was measured using APO-ONE 3/7 homogeneous assay (Promega).
(Resazurin is reduced to fluorescent resorufin, in cell work by metabolically active cells.)

Test [5] deals with trypsin-like sites (β2) of proteasome in MM cells. As to the kind of experiment: PROTEASOMEGLO assay of proteasome inhibition in MM cells. Type of test: cell-based. As for the experimental part: Proteasome inhibition in MM cells was measured with luminogenic substrates using PROTEASOMEGLO assay (Promega). […] An aliquot of culture was pelleted and medium was removed and replaced with PBS. The resulting cell suspension was mixed with luminogenic substrates in the manufacturer-provided lysis/assay buffer. After 3 minutes mixing on an orbital shaker, the plate was incubated in the dark for additional 17 minutes, followed by the measurements of the luminescence, performed in triplicate for each substrate/data point. Data were analyzed as for purified proteasomes. […] Cells (1×10^6 per well of a 6-well plate) were incubated with the inhibitors for 4 hours at 37° C. and this was followed by a 2 hour incubation with 5 μM BODIPY-TMR-epoxomicin. Subsequently, the medium was removed and the cells were washed with PBS and harvested. […] The supernatant was collected and the protein concentration was determined by the Bradford assay, and used to normalize gel loading. The samples were analysed by SDS-PAGE and fluorescent densitometry as described for competition experiment in cell lysates. IC50 values were calculated from three independent experiments using […] PRISM software.

Here are results for 15 compounds from patent US8609610B2, “Inhibitors of the trypsin-like site of the proteasome and methods of use thereof” (Trustees of Dartmouth College, priority 2011, dated 2013).

Where a name gives a salt, the structure may show the parent alone.

Chain of caspase-like site of 26S proteasomes (A0A5F9DQW2 1-212): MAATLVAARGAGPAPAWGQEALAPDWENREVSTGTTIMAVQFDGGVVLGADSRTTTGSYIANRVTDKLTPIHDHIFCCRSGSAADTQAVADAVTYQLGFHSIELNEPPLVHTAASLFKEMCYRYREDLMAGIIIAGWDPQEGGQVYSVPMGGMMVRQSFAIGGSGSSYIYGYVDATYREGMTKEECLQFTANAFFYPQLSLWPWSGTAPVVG

For the compound `CC(C)C[C@H](NC(=O)[C@H](Cc1ccccc1)N=[N+]=[N-])C(=O)N[C@@H](CC(C)C)C(=O)N[C@@H](Cc1ccc(N)cc1)C(=O)[C@@]1(C)CO1` [Compound 45b, N3-Phe-Leu-Leu-Phe(4-NH2)-EK], the IC50 in test [1] was 0.01 µM; in test [2], greater than 30 µM.

`CC(C)C[C@H](NC(=O)[C@H](Cc1ccncc1)NC(=O)[C@H](Cc1ccccc1)N=[N+]=[N-])C(=O)N[C@H](/C=C/S(C)(=O)=O)Cc1ccc(CN)cc1` [Compound 50, N3-Phe-Ala (4-pyridine)-Leu-Phe (4-CH2NH2-TFA)-VS]: the “inhibition of cathepsins (Z-FR-amc)” value in the test on Cathepsin B, H, L, S was “partly reduced cathepsin activity”.

`CC(C)C[C@@H](/C=C/S(C)(=O)=O)NC(=O)[C@H](CC(C)C)NC(=O)[C@H](Cc1ccncc1)NC(=O)[C@H](Cc1ccccc1)N=[N+]=[N-]` [Compound 57, N3-Phe-Ala(4-pyridine)-Leu-Leu-VS]: the IC50 was 24 µM in test [3] and greater than 30 µM in test [2]. For the same compound, the “IC50 (Chym-L)/IC50 (Tr-L)” value in test [4] worked out at 0.00021. Further, at β5 proteasome subunit, the “inhibition of chymotrypsin-like sites in extracts versus purified proteasomes” value was “less potently and selectively in extracts than in purified proteasomes”.

For the compound `CC(C)C[C@H](NC(=O)[C@H](Cc1ccccc1)NC(=O)[C@H](Cc1ccccc1)N=[N+]=[N-])C(=O)N[C@H](/C=C/S(C)(=O)=O)Cc1ccccc1` [Compound 58, N3-Phe-Phe-Leu-Phe-VS], the IC50 in test [3] and in test [2] was greater than 30 µM in each case.

On to `CC(C)C[C@H](NC(=O)[C@H](Cc1ccccc1)N=[N+]=[N-])C(=O)N[C@@H](CC(C)C)C(=O)N[C@H](/C=C/S(C)(=O)=O)Cc1ccc(N)cc1` [Compound 45a, N3-Phe-Leu-Leu-Phe(4-NH2)-VS], for which the IC50 in test [3] was determined as 0.11 µM; in test [1] it was 0.04 µM; in test [2] it was 23 µM.

On to `CC(C)C[C@H](NC(=O)[C@H](Cc1ccc(CN)cc1)NC(=O)[C@H](Cc1ccccc1)N=[N+]=[N-])C(=O)N[C@H](/C=C/S(C)(=O)=O)Cc1ccc(N)cc1` [Compound 53, N3-Phe-Phe (4-CH2NH2)-Leu-Phe (4-NH2)—VS], for which, in test [4], the “IC50 (Chym-L)/IC50 (Tr-L)” value is 59. The IC50 in test [2] is greater than 30 µM.

Regarding `CC(C)C[C@H](NC(=O)[C@H](Cc1ccccc1)N=[N+]=[N-])C(=O)N[C@@H](CC(C)C)C(=O)N[C@@H](Cc1ccc(CN)cc1)C(=O)[C@@]1(C)CO1` [Compound 4b, N3Phe-Leu-Leu-Phe(4-CH2NH2)EK], the IC50 worked out at 0.25 µM in test [3] and 11 µM in test [2].

In the case of `CCOC(=O)[C@H]1O[C@@H]1C(=O)N[C@@H](CC(C)C)C(=O)NCCC(C)C` [Compound E-64d], in the test with RPMI-8226 cells, the sensitization to carfilzomib result is “did not sensitize cells to carfilzomib”.

On to `CC(C)C[C@H](NC(=O)[C@H](Cc1ccccc1)N=[N+]=[N-])C(=O)N[C@@H](CC(C)C)C(=O)N[C@H](/C=C/S(C)(=O)=O)Cc1ccncc1` [Compound 46, N3-Phe-Leu-Leu-Ala(4-pyridine)-VS], for which the IC50 is less than 0.1 µM in test [1] and greater than 30 µM in test [2].

For `CC(C)C[C@@H](/C=C/S(C)(=O)=O)NC(=O)[C@H](CC(C)C)NC(=O)[C@H](Cc1ccc(CN)cc1)NC(=O)[C@H](Cc1ccccc1)N=[N+]=[N-]` [Compound 55, N3-Phe-Phe(4-CH2NH2.TFA)-Leu-Leu-VS], the “IC50 (Chym-L)/IC50 (Tr-L)” value in test [4] was found to be 0.057. In test [1], the IC50 was 0.01 µM.

In the case of `CC(C)C[C@H](NC(=O)[C@H](Cc1ccc(CN)cc1)NC(=O)[C@H](Cc1ccccc1)N=[N+]=[N-])C(=O)N[C@H](/C=C/S(C)(=O)=O)Cc1ccncc1` [Compound 54, N3-Phe-Phe (4-CH2NH2)-Leu-Ala (4 pyridine)-VS], the “IC50 (Chym-L)/IC50 (Tr-L)” value in test [4] was determined as 9.1. Besides, the IC50 in test [2] is greater than 30 µM.

For `CC(C)C[C@H](NC(=O)[C@H](Cc1ccc(N)cc1)NC(=O)[C@H](Cc1ccccc1)N=[N+]=[N-])C(=O)N[C@H](/C=C/S(C)(=O)=O)Cc1ccc(CN)cc1` [Compound 51, N3-Phe-Phe (4-NH2. TFA)-Leu-Phe (4-CH2NH2.TFA)-VS], the figures for the IC50 in test [3] and in test [1] were 0.03 µM and 3.4 µM, respectively. Further, the “difference in IC50 for trypsin-like activity between NCI-H929 and RPMI-8226” value in test [5] is recorded as “five-fold”. Moreover, the “inhibition of cathepsins (Z-FR-amc)” value in the test on Cathepsin B, H, L, S was “behaved similarly to 4a”.

As to “BODIPY-triazole-Phe-Phe(4-CH2NH2.TFA)-Leu-Phe(4-CH2NH2.TFA)-VS [Compound 59]”, the “specificity after attachment of BODIPY-FL dye” value in test [4] is listed as “reduced the specificity”.

Take `Cc1c(O)cccc1C(=O)N[C@H](C(=O)N[C@@H](CO)C(=O)N[C@H](/C=C/S(C)(=O)=O)Cc1ccc(N)cc1)C(C)C` [Compound 49, HMB-Val-Ser-Phe(4-NH2)-VS]: the values for the IC50 in test [3], in test [1] and in test [2] were 0.11 µM, 0.04 µM and 23 µM, respectively. For the same compound, the “IC50 (Chym-L)/IC50 (Tr-L)” value in test [4] was 0.36.

For the compound `CC(C)C[C@H](NC(=O)[C@H](Cc1ccccc1)N=[N+]=[N-])C(=O)N[C@@H](CC(C)C)C(=O)N[C@H](/C=C/S(C)(=O)=O)CCCCN` [Compound 47, N3-Phe-Leu-Leu-Lys-VS], the IC50 in test [2] is greater than 30 µM.

A word on the IC50: it is the concentration that inhibits the measured activity by half.
